Source: patent US10604476B2, “Fluorinated amide derivatives and their uses as therapeutic agents” (Trillium Therapeutics Inc., priority 2015, dated 2020)

How the values were obtained:
Format in all cases: in vivo
6 Hz psychomotor seizure = assay: Mouse 6 Hz model; details: mice, ip, 0.5 hour, 32 mA
Experimental: Male, Sprague-Dawley rats and CD-1 mice were used for all studies. All animals were allowed ad-lib access to food and water except during experiment. Animals were housed within an animal vivarium maintained under a 12 h light:dark cycle (lights on: 07:00 h), and all experiments were conducted in the animals light phase. For all experiments, animals were habituated to the vivarium for a minimum of 72 h before experimentation. The experimental procedures used in the present investigation were conducted under the Association for Assessment and Accreditation of Laboratory Animal Care (AAALAC) and the Canadian Council on Animal Care (CCAC) guidelines. All compounds were sonicated in 5% Tween 80® in saline or methylcellulose 0.5% (wgt/vol), using MC and sterile water and injected in a dose volume of 5 ml/kg or 10 ml/kg (rat), and 10 ml/kg (mouse). Drugs were administered by either the oral, intraperitoneal or intravenous route. […] Preliminary experiments established that these stimulus parameters elicited a psychomotor seizure, defined as the expression of at least one of the following behaviors: stun/immobility, forelimb clonus, straub tail, vibrissae tremor, lateral head movement in >95% of control animals. Protection was defined as complete absence of all the above behaviors within 20 s of stimulus delivery. The effective dose of compound necessary to protect against psychomotor seizures to 50% of controls (i.e. ED50) was determined by curve fitting program (Prism v.4.02).

[1] = system: spontaneous recurrent hippocampal paroxysmal discharges (HPD); assay: Mesial temporal lobe epilepsy (mTLE) mouse model; details: 125 mg/kg; mice lesioned with intrahippocampal kainic acid
Text: The MTLE mouse model recapitulates many of the characteristics observed in human patients with temporal lobe epilepsy (TLE). The MTLE mouse is characterized by an initial neurotoxic event, a unilateral intrahippocampal injection of kainic acid (KA) into the dorsal hippocampus, which induces non-convulsive SE lasting several hours. This initial event is followed by a latent phase. Two to three weeks after KA injection, spontaneous recurrent hippocampal paroxysmal discharges (HPD) are only recorded in the epileptic hippocampus and remain stable and stereotyped for the whole life of the animal. These HPDs occur spontaneously about 30-60 times per hour when the animals are in a state of quiet wakefulness, generally last 15-20 sec and are associated with behavioral arrest and/or mild motor automatisms. […] Data are analyzed for the period of 10 minutes before and 10 minutes after peak time of effect of the investigational compound, as determined from the 6 Hz 44 mA seizure test. […] Data are presented as the raw number of HPDs during the analyzed 20 min period (10 minutes before and 10 minutes after peak time of effect of compound) for each MTLE mouse, group mean number of HPDs, and effect on suppression as represented by percent of baseline HPD values.

[2] = system: Metrazol seizure threshold; assay: Timed intravenous infusion of Metrazol (iv Met) in mouse; details: FIG. 1, p<0.001
Experimental: The iv-Met test provides a measure of a test substance's ability to raise or lower seizure threshold. Two doses of the test compound are usually employed in this test, the MES ED50 and the TD50 determined following ip quantification testing in mice. Randomly selected mice are injected intraperitoneally 2 minutes apart with either the vehicle or the two test drug doses, maintaining the same order of dosing until 30 mice have been injected. At the previously determined TPE, 0.5% heparinized Metrazol solution is infused at a constant rate of 0.34 ml/min into a lateral tail vein of an unrestrained mouse. Infusion is by means of a Sage syringe pump (model 341 A) and a 10 ml B-D plastic syringe connected to a length of No 20 P.E. tubing. A 27 gauge stainless steel needle with the hub removed is connected to the tubing and inserted into a vein, bevel side up and secured to the tail by a narrow piece of adhesive tape. For the placement of the needle, the mouse is restrained in a cone shaped device with only the tail exposed. […] The time in seconds from the start of the infusion to the appearance of the “first twitch” and the onset of sustained clonus is recorded. The times to each endpoint are converted to mg/kg of Metrazol for each mouse as follows: The mean and standard error for each of the 3 groups and the significance of the difference between the test groups and the control are calculated.

SMILES	ED50 (6 Hz psychomotor seizure) [mg/kg]	effect against spontaneous recurrent hippocampal paroxysmal discharges (HPD) [1]	seizure threshold (time to twitch, time to clonus, total dose of pentylenetetrazol to first twitch or clonus) [2]
C[C@@H](Oc1cc(Cl)cc(C(F)(F)F)c1)C(N)=O [I(D), (2R)-2-[3-chloro-5-(trifluoromethyl)-phenoxy]propanamide]	48.5 ± 1	effective	elevate seizure threshold
NC(=O)COc1cc(C(F)(F)F)cc(C(F)(F)F)c1 [I(F), 2-[3,5 bis(trifluoromethyl)-phenoxy]acetamide;]	38.5 ± 1	–	–
